Like-named read-outs stand apart in the source and are kept apart here. Marks after values point to notes of the source that are not given here.
Key:
cyclic AMP = assay: Cyclic AMP content of acini (radioimmunoassay); type: cell-based, rat; settings: for Cyclic AMP (pmol/mg protein), isoproterenol-stimulated: isoproterenol 10 μM alone or + PDE inhibitor (IBMX, Type III, Type IV 1 mM; Type V 0.2 mM), 5 min, n in parentheses
cyclic GMP = assay: Cyclic GMP content of acini (radioimmunoassay); type: cell-based, rat; settings: for Cyclic GMP (fmol/mg protein), + Isoproterenol (10 μM) / Cyclic GMP (fmol/mg protein), No Isoproterenol: 5 min, IBMX, Types III, IV 1 mM, Type V 0.2 mM, mean±SEM (n)
rat submandibular acini = assay: Mucin secretion from rat submandibular acini ([3H]-glucosamine labelled mucin release); settings: for Mucin Secretion (% basal), isoproterenol-stimulated: isoproterenol 10 μM alone or + PDE inhibitor (IBMX, Type III, Type IV 1 mM; Type V 0.2 mM), 30 min, n in parentheses; for Mucin secretion % basal: wild type mucin secretion
CFTR [1] = assay: Correction of CFTR antibody-inhibited β-adrenergic stimulation of mucin secretion in rat submandibular acini; settings: acini containing CFTR antibody; isoproterenol 10 μM + PDE inhibitor (Types III, IV 1 mM; Type V 0.2 mM); 30 min; compared with cpt-cyclic AMP 1 mM
CFTR [2] = settings: acini containing CFTR antibody; 1 mM; 'has been shown'; cited from earlier work
PDE V = PDE V (Homo sapiens, UniProt O76074); assay: PDE V inhibition; type: biochemical

For `C[C@@H]1CC(=O)NN=C1c1ccc(-n2ccc(=O)cc2)cc1` (racemic) [Type III, (R,S)-4,5-dihydro-6-[4-(1,4-dihydro-4-oxopyridin-1-yl)phenyl]-5-methyl-3(2H)-pyridazinone, reference compound], the “Cyclic AMP (pmol/mg protein), isoproterenol-stimulated” value (“Cyclic AMP (pmol/mg protein)” for short) (cyclic AMP) was “*1009.6 ± 91.5 (6) pmol/mg protein”, the “Cyclic GMP (fmol/mg protein), + Isoproterenol (10 μM)” value (“Cyclic GMP … (10 μM)” below) (cyclic GMP) was 47.0 ± 1.8 (4) fmol/mg protein and the “Cyclic GMP (fmol/mg protein), No Isoproterenol” value (from here on “Cyclic GMP … No Isoproterenol”) (cyclic GMP) was 39.3 ± 2.4 (3) fmol/mg protein. For the same molecule, the “Mucin Secretion (% basal), isoproterenol-stimulated” value (from here on “Mucin Secretion (% basal)”) (rat submandibular acini) was 692 ± 238 (6) % basal and the “Correction of the defective β-adrenergic secretory response (FIG. 1)” value (“Correction” below) (CFTR [1]) was “ineffective”.

In the case of `CC(C)Cn1c(=O)n(C)c(=O)c2[nH]cnc21` [IBMX, reference compound], the “Cyclic AMP (pmol/mg protein)” value (cyclic AMP) is reported as “*1252.9 ± 129.6 (6) pmol/mg protein”, the “Cyclic GMP … (10 μM)” value (cyclic GMP) is reported as “**55.6 ± 1.6 (8) fmol/mg protein” and the “Cyclic GMP … No Isoproterenol” value (cyclic GMP) is reported as 48.1 ± 5.2 (8) fmol/mg protein. For the same molecule, the “Restored secretion, % of the secretion response seen in cells containing an equivalent amount of non-immune IgG” value (CFTR [2]) was “approx. 75%” and the “Mucin Secretion (% basal)” value (rat submandibular acini) was 924 ± 290 (6) % basal.

In the case of `CC(C)NCC(O)c1ccc(O)c(O)c1` (stereo not drawn) [Isoproterenol, reference compound], the “Cyclic AMP (pmol/mg protein)” value (cyclic AMP) is reported as 373.0 ± 84.0 (6) pmol/mg protein, the “Cyclic GMP … (10 μM)” value (cyclic GMP) is reported as 45.2 ± 1.6 (4) fmol/mg protein and the “Mucin Secretion (% basal)” value (rat submandibular acini) is reported as 785 ± 212 (6) % basal.

For `COc1ccc(C2CNC(=O)C2)cc1OC1CCCC1` (stereo not drawn) [Type IV, 4-(3-cyclopentyloxy-4-methoxyphenyl)-2-pyrrolidinone, reference compound], the “Cyclic AMP (pmol/mg protein)” value (cyclic AMP) was “**1908.7 ± 150.8 (6) pmol/mg protein”, the “Cyclic GMP … (10 μM)” value (cyclic GMP) was 45.2 ± 2.0 (4) fmol/mg protein and the “Cyclic GMP … No Isoproterenol” value (cyclic GMP) was 40.1 ± 1.5 (3) fmol/mg protein. For the same molecule, the “Mucin Secretion (% basal)” value (rat submandibular acini) was 708 ± 220 (6) % basal and the “Correction” value (CFTR [1]) was “as effective as cpt-cAMP”.

For `CCCOc1ccccc1-c1nc2[nH]cnc2c(=O)[nH]1` [Type V, 1,7-dihydro-2-(2-propoxyphenyl)-6H-purin-6-one], the “Cyclic AMP (pmol/mg protein)” value (cyclic AMP) was 375.5 ± 95.8 (6) pmol/mg protein, the “Cyclic AMP (pmol/mg protein)” value (cyclic AMP; listed as Type V PDE inhibitor) was “did not potentiate” and the “Cyclic GMP … (10 μM)” value (cyclic GMP) was “**64.3 ± 3.6 (5) fmol/mg protein”. The “Cyclic GMP … No Isoproterenol” value (cyclic GMP) was “*47.3 ± 2.5 (5) fmol/mg protein”, the “Mucin Secretion (% basal)” value (rat submandibular acini) was 755 ± 243 (6) % basal and the “Correction” value (CFTR [1]) was “as effective as cpt-cAMP”.

For `CCCOc1ccccc1-c1nc2[nH]cnc2c(=O)[nH]1` [a)], the “cyclic AMP % basal” value (cyclic AMP) was 100 % basal, the “cyclic GMP % basal” value (cyclic GMP) was 140 % basal and the “Mucin secretion % basal” value (rat submandibular acini) was 120 % basal.

For `CCCOc1ccccc1-c1nc2cnccc2c(=O)[nH]1` [b)], the “cyclic AMP % basal” value (cyclic AMP) was 600* % basal, the “cyclic GMP % basal” value (cyclic GMP) was 130 % basal and the IC50 (PDE V) was 550 nM. The “Mucin secretion % basal” value (rat submandibular acini) was 180* % basal.

With `CNc1ncc2c(=O)[nH]c(-c3ccccc3OC)nc2n1` [c)] the “cyclic AMP % basal” value (cyclic AMP) was 250* % basal, the “cyclic GMP % basal” value (cyclic GMP) was 90 % basal and the IC50 (PDE V; read-out: PDE V IC50) was 22000 nM. The “Mucin secretion % basal” value (rat submandibular acini) was 160* % basal.

With `COc1ccccc1-c1nc2cccnc2[nH]1` [d)] the “cyclic AMP % basal” value (cyclic AMP) was 600* % basal, the “cyclic GMP % basal” value (cyclic GMP) was 90 % basal and the IC50 (PDE V; read-out: PDE V IC50) was 34000 nM. For the same molecule, the “Mucin secretion % basal” value (rat submandibular acini) was 200* % basal.

With `CCCOc1ccccc1-c1nc2nc(N)ncc2c(=O)[nH]1` [e)] the “cyclic AMP % basal” value (cyclic AMP) was 350* % basal, the “cyclic GMP % basal” value (cyclic GMP) was 130 % basal and the IC50 (PDE V; read-out: PDE V IC50) was 650 nM. For the same molecule, the “Mucin secretion % basal” value (rat submandibular acini) was 170* % basal.

In the case of `CCOc1ccccc1-c1nc2[nH]cnc2c(=O)[nH]1` [f)], the “cyclic AMP % basal” value (cyclic AMP) is reported as 100 % basal, the “cyclic GMP % basal” value (cyclic GMP) is reported as 110 % basal and the IC50 (PDE V; read-out: PDE V IC50) is reported as 4500 nM. For the same molecule, the “Mucin secretion % basal” value (rat submandibular acini) was 160* % basal.

With `CCCCOc1ccccc1-c1nc2cccnc2[nH]1` [g)] the “cyclic AMP % basal” value (cyclic AMP) was 160* % basal, the “cyclic GMP % basal” value (cyclic GMP) was 110 % basal and the IC50 (PDE V; read-out: PDE V IC50) was 750 nM. The “Mucin secretion % basal” value (rat submandibular acini) was 200* % basal.

In the case of `O=c1[nH]c(-c2ccccc2O)nc2[nH]cnc12` [h)], the “cyclic AMP % basal” value (cyclic AMP) is reported as 100 % basal, the “cyclic GMP % basal” value (cyclic GMP) is reported as 110 % basal and the IC50 (PDE V; read-out: PDE V IC50) is reported as 48000 nM. The “Mucin secretion % basal” value (rat submandibular acini) was 180* % basal.

For `CCCOc1ccccc1-c1nc2nc(NCC(C)O)ncc2c(=O)[nH]1` (stereo not drawn) [i)], the “cyclic AMP % basal” value (cyclic AMP) was 100 % basal, the “cyclic GMP % basal” value (cyclic GMP) was 90 % basal and the IC50 (PDE V; read-out: PDE V IC50) was 200 nM. The “Mucin secretion % basal” value (rat submandibular acini) was 170* % basal.

With `CCOc1ccccc1-c1nc2[nH]c(=O)[nH]c2c(=O)[nH]1` [j)] the “cyclic AMP % basal” value (cyclic AMP) was 100 % basal, the “cyclic GMP % basal” value (cyclic GMP) was 140* % basal and the IC50 (PDE V; read-out: PDE V IC50) was 1300 nM. For the same molecule, the “Mucin secretion % basal” value (rat submandibular acini) was 160* % basal.

Source: patent publication US6599907B1, “Cystic fibrosis medicaments” (University of Wales College of Medicine, priority 1999, dated 2003)
